# Source: patent publication US20220411381A1, “PYRIMIDINEDIONE DERIVATIVES” (Bayer Aktiengesellschaft, priority 2019, published 2022)
# Like-named read-outs stand apart in the source and are kept apart here.
# Legend:
# [1] = system: MDA-MB231 cells; assay: In vitro assay 2: BCAT cellular assay, leucine in medium of MDA-MB231 cells; format: cell-based; settings: 24 hours incubation, leucine level in medium (LeuDH/diaphorase/resazurin readout), read-out: MDAMB-231 IC50
# Method: (§1) In Vitro Assay 2: BCAT Cellular Assay
# (§2) Levels of leucine were measured in medium of different tumor cell lines. The enzyme BOAT (Branched chain amino acid transferase) catalyzes the consumption of leucine.
# (§3) Cells (U87-MG and MDA-MB231 from ATCC) were grown in Dulbecco's Modified Eagle Medium (DMEM) containing 10% fetal calf serum. They were harvested by trypsin and seeded into 96-well plates. Cells were incubated overnight at 37° C. in an atmosphere containing 5% carbon dioxide. The next day test compounds were added to each cell well. The final concentration of dimethylsulfoxide (DMSO) was 0.1% and DMSO controls were included. The plates were then placed in an incubator for 24 hours.
# (§4) Leucine was measured in an enzymatic readout with leucine dehydrogenase (LeuDH) and diaphorase. Medium is deproteinized with perchloric acid. 30 μl of 1 M aqueous perchloric acid was added to each well and the plates were centrifuged.
# [2] = molecular target: T1, recombinant human BCAT1 enzyme (Homo sapiens, UniProt P54687); assay: In vitro assay 1a: BCAT1 biochemical assay (coupled LeuDH/NADH fluorescence readout)
# T1 construct: purchased ATGen (South Korea) ATGP1479
# T1 sequence (P54687 1-386): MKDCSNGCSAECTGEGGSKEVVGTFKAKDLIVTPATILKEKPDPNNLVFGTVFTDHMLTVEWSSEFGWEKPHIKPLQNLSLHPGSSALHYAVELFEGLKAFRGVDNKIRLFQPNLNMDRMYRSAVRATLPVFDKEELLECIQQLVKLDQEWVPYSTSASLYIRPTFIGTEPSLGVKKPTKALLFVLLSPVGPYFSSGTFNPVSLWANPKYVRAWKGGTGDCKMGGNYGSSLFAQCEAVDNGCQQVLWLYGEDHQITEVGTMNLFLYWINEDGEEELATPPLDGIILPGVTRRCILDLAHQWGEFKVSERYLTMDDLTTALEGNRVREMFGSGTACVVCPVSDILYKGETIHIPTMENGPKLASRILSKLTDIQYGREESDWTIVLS
# Method: (§5) In Vitro Assay 1a and 1b: BCAT1 and BCAT2 Biochemical Assay
# (§6) BOAT (Branched chain amino acid transferase) catalyzes transamination of the branched chain amino acid leucine to α-ketoisocaproate (KIC). The BOAT enzymatic reaction was measured in a coupled readout with leucine dehydrogenase (LeuDH) which catalyzes the Nicotinamide adenine dinucleotide (NADH) dependent reduction of KIC to leucine. NADH consumption is measured by fluorescent readout.
# (§7) The biochemical reactions were performed at 32° C. in 384-well plates using a reaction volume of 51 μl and the following assay buffer conditions: 50 mM HEPES (2-[4-(2-hydroxyethyl)piperazin-1-yl]ethanesulfonic acid) pH 8.0, 50 mM aqueous solution of ammonium sulfate, 1 mM ethylenediaminetetraacetic acid, 2 mM dithiothreitol, 0.01% bovine serum albumine, 0.005% Brij 35 detergent, 0.5 μM PLP (pyridoxalphosphate), 10 μM NADH, and 50 μM α-ketoglutarate), and 100 μM leucine. […] Test compounds were used in a concentration range between 0.005 and 30 μM. The final DMSO concentration was 2%.
# (§8) The reaction was initiated by addition of substrates (Leucine, α-KG, NADH).
# [3] = molecular target: T2, recombinant human BCAT2 enzyme (Homo sapiens, UniProt O15382); assay: In vitro assay 1b: BCAT2 biochemical assay (coupled LeuDH/NADH fluorescence readout); as to BCAT2 IC50 [M]: recombinant human BCAT2 0.75 nM
# T2 construct: purchased ATGen (South Korea) ATGP1523
# T2 sequence (O15382 28-392): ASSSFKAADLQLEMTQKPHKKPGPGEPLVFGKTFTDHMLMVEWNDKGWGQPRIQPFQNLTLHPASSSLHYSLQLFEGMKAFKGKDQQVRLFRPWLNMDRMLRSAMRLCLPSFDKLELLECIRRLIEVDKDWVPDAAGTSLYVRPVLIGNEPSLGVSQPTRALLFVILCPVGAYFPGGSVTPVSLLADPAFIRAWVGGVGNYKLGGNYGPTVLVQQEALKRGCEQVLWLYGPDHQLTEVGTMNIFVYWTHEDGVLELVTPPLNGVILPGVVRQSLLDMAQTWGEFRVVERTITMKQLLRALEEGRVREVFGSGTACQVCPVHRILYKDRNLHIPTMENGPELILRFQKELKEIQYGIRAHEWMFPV
# Method: as §5, §6, §7, §8
# [4] = system: U87-MG cells; assay: In vitro assay 2: BCAT cellular assay, leucine in medium of U87-MG cells; format: cell-based; settings: 24 hours incubation, leucine level in medium (LeuDH/diaphorase/resazurin readout)
# Method: as §1, §2, §3, §4
# [5] = recombinant human BCAT1 […], 32° C., 100 μM leucine, 50 μM α-ketoglutarate, NADH fluorescence over 90 min, read-out: BCAT1 IC50
# [6] = recombinant human BCAT2 […], 32° C., 100 μM leucine, 50 μM α-ketoglutarate, NADH fluorescence over 90 min, read-out: BCAT2 IC50
IC50 [1] [µM],"IC50 ([1]; Homo sapiens, MDA-MB-231, 24 h) [µM]","IC50 [2, 5] [M]","IC50 [3, 6] [M]","IC50 ([4]; Homo sapiens, U-87 MG, 24 h) [µM]",Compound,IC50 ([2]; BCAT1 IC50 [M]) [M],IC50 ([3]; BCAT2 IC50 [M]) [M],IC50 [4] [µM]
> 30,30,3.9e-07,6e-06,13,"Cc1cc(C#N)c(Oc2ccccc2Cl)cc1-n1c(=O)cc(C(F)(F)F)[nH]c1=O (racemic) [Example 10, 2-(2-Chlorophenoxy)-4-[2,6-dioxo-4-(trifluoromethyl)-3,6-dihydropyrimidin-1 (2H)-yl]-5-methylbenzonitrile (rac)]",–,–,–
–,17,1.48e-07,8.3e-07,20,"COc1cc(C#N)c(Oc2ccccc2Cl)cc1-n1c(=O)cc(C(F)(F)F)[nH]c1=O (racemic) [Example 15, 2-(2-Chlorophenoxy)-4-[2,6-dioxo-4-(trifluoromethyl)-3,6-dihydropyrimidin-1(2H)-yl]-5-methoxybenzonitrile (rac)]",–,–,–
–,–,2.8e-07,3.5e-06,6.2,"COc1cc(Cl)c(Oc2ccccc2C)cc1-n1c(=O)cc(C(F)F)[nH]c1=O (racemic) [Example 28, 3-[4-Chloro-2-methoxy-5-(2-methylphenoxy)phenyl]-6-(difluoromethyl)pyrimidine-2,4(1H,3H)-dione (rac)]",–,–,–
–,–,7.5e-07,5e-06,3.6,"COc1cc(Cl)c(Oc2ccccc2Cl)cc1-n1c(=O)cc(C(F)(F)F)[nH]c1=O (racemic) [Example 50, 3-[4-Chloro-5-(2-chlorophenoxy)-2-methoxyphenyl]-6-(trifluoromethyl)pyrimidine-2,4(1H,3H)-dione (rac)]",–,–,–
–,–,9e-07,5.9e-06,> 30,"COc1cc(C#N)c(Oc2ccccc2C)cc1-n1c(=O)cc(C(N)=O)[nH]c1=O (racemic) [Example 73, 1-[4-Cyano-2-methoxy-5-(2-methylphenoxy)phenyl]-2,6-dioxo-1,2,3,6-tetrahydropyrimidine-4-carboxamide (rac)]",–,–,–
–,–,–,–,–,"Cc1ccccc1Oc1cc(-n2c(=O)cc(C(F)(F)F)[nH]c2=O)c(C)cc1C#N (single isomer, unassigned) [Example 8, 4-[2,6-Dioxo-4-(trifluoromethyl)-3,6-dihydropyrimidin-1 (2H)-yl]-5-methyl-2-(2-methylphenoxy)benzonitrile (atrop 1)]",1.1e-06,9e-06,6
–,–,–,–,–,"Cc1ccccc1Oc1cc(-n2c(=O)cc(C(F)(F)F)[nH]c2=O)c(C)cc1C#N (single isomer, unassigned) [Example 9, 4-[2,6-Dioxo-4-(trifluoromethyl)-3,6-dihydropyrimidin-1(2H)-yl]-5-methyl-2-(2-methylphenoxy)benzonitrile (atrop 2)]",8e-08,9e-07,1.5
–,10.8,1.5e-07,2.5e-06,5.4,"COc1cc(C#N)c(Oc2ccccc2Cl)cc1-n1c(=O)cc(C(F)(F)F)[nH]c1=O (single isomer, unassigned) [Example 16, 2-(2-Chlorophenoxy)-4-[2,6-dioxo-4-(trifluoromethyl)-3,6-dihydropyrimidin-1(2H)-yl]-5-methoxybenzonitrile (atrop 1)]",–,–,–
16,–,–,7.7e-07,16.5,"COc1cc(C#N)c(Oc2ccccc2C)cc1-n1c(=O)cc(S(=O)(=O)c2ccccc2)[nH]c1=O (single isomer, unassigned) [Example 77, 4-[4-(Benzenesulfonyl)-2,6-dioxo-3,6-dihydropyrimidin-1(2H)-yl]-5-methoxy-2-(2-methylphenoxy)benzonitrile (atrop 1)]",–,–,–
3.8,–,–,1.4e-07,–,"COc1cc(C#N)c(Oc2ccccc2C)cc1-n1c(=O)cc(S(=O)(=O)c2ccccc2)[nH]c1=O (single isomer, unassigned) [Example 78, 4-[4-(Benzenesulfonyl)-2,6-dioxo-3,6-dihydropyrimidin-1(2H)-yl]-5-methoxy-2-(2-methylphenoxy)benzonitrile (atrop 2)]",–,–,12.5
–,> 30,3.15e-07,5.5e-06,11.1,"Cc1ccccc1Oc1cc(-n2c(=O)cc(Br)[nH]c2=O)c(F)cc1C#N [Example 3, 4-(4-Bromo-2,6-dioxo-3,6-dihydropyrimidin-1(2H)-yl)-5-fluoro-2-(2-methylphenoxy)benzonitrile]",–,–,–
–,12,4.45e-07,2.2e-06,4.63,"Cc1ccccc1Oc1cc(-n2c(=O)cc(C(F)(F)Cl)[nH]c2=O)c(F)cc1C#N [Example 40, 4-{4-[Chloro(difluoro)methyl]-2,6-dioxo-3,6-dihydropyrimidin-1(2H)-yl}-5-fluoro-2-(2-methylphenoxy)benzonitrile]",–,–,–
–,> 30,6.75e-07,6e-06,25,"N#Cc1ccc(-n2c(=O)cc(C(F)(F)F)[nH]c2=O)cc1Oc1ccccc1Cl [Example 46, 2-(2-Chlorophenoxy)-4-[2,6-dioxo-4-(trifluoromethyl)-3,6-dihydropyrimidin-1 (2H)-yl]benzonitrile]",–,–,–
–,30,1.35e-06,–,2.95,"Cc1ccccc1Oc1cc(-n2c(=O)cc(C(F)(F)C(F)(F)F)[nH]c2=O)c(F)cc1C#N [Example 52, 4-[2,6-dioxo-4-(pentafluoroethyl)-3,6-dihydropyrimidin-1(2H)-yl]-5-fluoro-2-(2-methylphenoxy)benzonitrile]",–,–,–
–,9,2.16e-06,–,7.5,"Cc1ccccc1Oc1cc(-n2c(=O)cc(-c3ccc(C(F)(F)F)cc3)[nH]c2=O)c(F)cc1C#N [Example 68, 4-{2,6-Dioxo-4-[4-(trifluoromethyl)phenyl]-3,6-dihydropyrimidin-1(2H)-yl}-5-fluoro-2-(2-methylphenoxy)benzonitrile]",–,–,–
–,> 30,1.33e-06,–,30,"Cc1ccccc1Oc1cc(-n2c(=O)cc(-c3cccc(Cl)c3)[nH]c2=O)c(F)cc1C#N [Example 70, 4-[4-(3-Chlorophenyl)-2,6-dioxo-3,6-dihydropyrimidin-1(2H)-yl]-5-fluoro-2-(2-methylphenoxy)benzonitrile]",–,–,> 30
–,> 30,1.75e-06,–,> 30,"Cc1ccccc1Oc1cc(-n2c(=O)cc(C(=O)NCC(F)(F)F)[nH]c2=O)c(F)cc1C#N [Example 71, 1-[4-Cyano-2-fluoro-5-(2-methylphenoxy)phenyl]-2,6-dioxo-N-(2,2,2-trifluoroethyl)-1,2,3,6-tetrahydropyrimidine-4-carboxamide]",–,–,–

Compound,IC50 [1] [µM],"IC50 ([1]; Homo sapiens, MDA-MB-231, 24 h) [µM]","IC50 [2, 5] [M]","IC50 [3, 6] [M]","IC50 ([4]; Homo sapiens, U-87 MG, 24 h) [µM]",IC50 ([2]; BCAT1 IC50 [M]) [M],IC50 ([3]; BCAT2 IC50 [M]) [M],IC50 [4] [µM]
"COc1cc(C#N)c(Oc2ccccc2C)cc1-n1c(=O)cc(C(F)(F)F)[nH]c1=O (single isomer, unassigned) [Example 5, 4-[2,6-Dioxo-4-(trifluoromethyl)-3,6-dihydropyrimidin-1(2H)-yl]-5-methoxy-2-(2-methylphenoxy)benzonitrile (atrop 1)]",–,–,–,–,6,1.13e-07,–,–
